# Columns and labels:
# [1] = target: T1, serotonin (5-HT) transporter (SERT) (Rattus norvegicus (Rat), UniProt P31652); assay: Rat synaptosome SERT [3H]5-HT release assay; details: [3H]5-HT release via SERT EC50 (nM), 5 nM [3H]5-HT
# [2] = target: Nicotinic Acetylcholine Receptor α4β2 (nAchRa4/b2) (Homo sapiens (Human), UniProt P17787+P43681); assay: Nicotinic acetylcholine receptor α4β2 ion channel blocking assay; assay type: cell-based
# Protocol: Cell lines were expanded from freezer stocks according to standard procedures. Cells were seeded in a total volume of 20 μL into black-walled, clear-bottom, Poly-D-lysine coated 384-well microplates and incubated at 37° C. for the appropriate time prior to testing.
# Assays were performed in 1×Dye Loading Buffer consisting of 1×Dye, and 2.5 mM freshly-prepared Probenecid when applicable.
# Test compounds were assayed at 10 concentrations with the highest concentration either 30 or 10 μM and subsequent concentrations using a 0.33 dilution factor.
# Prior to testing, cells were loaded with dye then incubated for 30-60 minutes at 37° C. For antagonist determination, cells were pre-incubated with sample. Dihydro-β-erythroidine was used as a positive control. Intermediate dilution of sample stocks was performed to generate 2-5×sample in assay buffer.
# After dye loading, cells were moved from the incubator and 10-25 μL 2-5×sample was added to cells in the presence of EC80 agonist when appropriate. Cells were incubated for 30 minutes at room temperature in the dark to equilibrate plate temperature. Vehicle concentration was 1%.
# Compound activity was measured on a FLIPRTetra(MDS) and analyzed using CBIS data analysis suite (ChemInnovation, CA). Percentage inhibition was calculated using the following formula: % Inhibition=100%×(1−(mean RLU of test sample−mean RLU of vehicle control)/(mean RLU of EC80 control−mean RLU of vehicle control)).
# [3] = target: human 5-HT transporter (hSERT) (Homo sapiens (Human), UniProt P31645); assay: Human serotonin transporter  assay ([3H]imipramine radioligand, CHO cells); assay type: binding
# Protocol: Benzofuran derivatives were evaluated for inhibiting the human 5-HT transporter (hSERT) as expressed in CHO cells using an antagonist radioligand assay (Tatsumi, M. et al. (1999), Eur. J Pharmacol., 368: 277-283). […] Test compounds were assayed in three trials at […], and 0.94868 μM.
# [4] = target: T1, serotonin (5-HT) transporter (SERT); assay: Rat synaptosome SERT [3H]5-HT uptake inhibition assay; details: Inhibition of [3H]5-HT Uptake at SERT IC50 (nM), 5 nM [3H]5-HT
# [5] = Solubility assessment in FaSSIF V2 media; details: room temp, scale up samples of racemic 5-MAPB salts
# MAO-A = MAO-A (Homo sapiens (Human), UniProt P21397); assay: MAO-A inhibition assay (kynuramine); assay type: biochemical
# MAO-A, sequence (P21397 whole entry, looked up, species assumed): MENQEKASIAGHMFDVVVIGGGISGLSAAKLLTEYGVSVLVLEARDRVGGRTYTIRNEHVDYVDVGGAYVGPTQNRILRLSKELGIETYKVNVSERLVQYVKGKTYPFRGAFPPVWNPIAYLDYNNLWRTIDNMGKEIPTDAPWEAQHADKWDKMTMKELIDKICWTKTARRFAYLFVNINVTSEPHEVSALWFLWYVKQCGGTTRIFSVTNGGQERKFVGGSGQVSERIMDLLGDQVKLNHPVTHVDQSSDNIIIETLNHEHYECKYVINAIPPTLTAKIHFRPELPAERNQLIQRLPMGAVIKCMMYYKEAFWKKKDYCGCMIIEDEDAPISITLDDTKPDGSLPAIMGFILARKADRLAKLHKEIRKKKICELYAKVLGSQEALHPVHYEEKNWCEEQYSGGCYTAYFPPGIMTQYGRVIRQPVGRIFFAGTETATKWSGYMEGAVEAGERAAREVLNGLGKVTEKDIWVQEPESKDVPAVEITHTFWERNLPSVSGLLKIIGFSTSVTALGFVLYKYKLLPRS
# Protocol: MAO-A and test compounds were preincubated at 37° C. for 15 minutes before substrate addition. Test compounds were assayed at 10 concentrations with the highest concentration either 30 or 10 μM and subsequent concentrations using a 0.33 dilution factor. The reaction was initiated by addition of kynuramine and incubated at 37° C. for 30 minutes. The reaction was terminated by addition of NaOH. The amount of 4-hydroquioline formed was determined through spectrofluorimetric readout with the emission detection at 380 nm and excitation wavelength 310 nm.
# 5-HT1BR = 5-HT1BR (Homo sapiens (Human), UniProt P28222); assay: 5-HT1BR cAMP secondary messenger agonist assay (HitHunter, CHO-K1); assay type: cell-based
# From the text: The 5-HT1BR cAMP secondary messenger agonist assay used a panel of CHO-K1 cell lines stably expressing non-tagged GPCRs that endogenously signal through cAMP. Hit Hunter® cAMP assays monitored the activation of a GPCR via Gi and Gs secondary messenger signaling in a homogenous, non-imaging assay format using DiscoverX Enzyme Fragment Complementation (EFC) with β-galactosidase as the functional endpoint.
# The enzyme was split into two complementary portions: Enzyme Acceptor (EA) and Enzyme Donor (ED). Exogenously introduced ED fused to cAMP (ED-cAMP) competed with endogenously generated cAMP for binding to an anti-cAMP-specific antibody. Active β-galactosidase was formed by complementation of exogenous EA to any unbound ED-cAMP.
# Cell lines were expanded from freezer stocks according to standard procedures. Cells were seeded in a total volume of 20 μL into white walled, 384-well microplates and incubated at 37° C. for the appropriate time prior to testing. cAMP modulation was determined using the DiscoverX HitHunter cAMP XS+ assay.
# For agonist determination, cells were incubated with sample (in the presence of EC80 forskolin to induce response if measuring Gi secondary messenger signaling). Media was aspirated from cells and replaced with 15 μL 2:1 HBSS/10 mM Hepes:cAMP XS+ Ab reagent. Intermediate dilution of sample stocks was performed to generate 4×sample in assay buffer (optionally containing 4×EC80 forskolin). 5 μL of 4×sample was added to cells and incubated at 37° C. or room temperature for 30 or 60 minutes, as appropriate. Final assay vehicle concentration was 1%.
# DAT = DAT (Homo sapiens (Human), UniProt Q01959); assay: hDAT release assay in CHO cells ([3H]dopamine); details: EC50 DAT (Mean ± SEM, nM), CHO cells expressing hDAT
# SERT = SERT (Homo sapiens (Human), UniProt P31645); assay: hSERT release assay in CHO cells ([3H]serotonin); details: EC50 SERT (Mean ± SEM, nM), CHO cells expressing hSERT
# 5-HT2A receptors = 5-HT2A receptors (Homo sapiens (Human), UniProt P28223); assay: 5-HT2A agonist and antagonist calcium assay (Calcium NWPLUS, FLIPR); assay type: cell-based
# Protocol: The DiscoveRx Calcium NWPLUS Assay was used for detection of changes in intracellular calcium as signalled by an increase of dye fluorescence in cells expressing 5-HT2A receptors. Signal was measured on a fluorescent plate reader equipped with fluidic handling capable of detecting rapid changes in fluorescence upon compound stimulation.
# To conduct the assay, cell lines were expanded from freezer stocks according to standard procedures. Cells (10,000 cells/well) were seeded in a total volume of 50 μL (200 cells/μL) into black-walled, clear-bottom, Poly-D-lysine coated 384-well microplates and incubated at 37-C for the appropriate time prior to testing. DMSO concentration for all readouts was ≤0.2%.
# Assays were performed in 1×DyeLoading Buffer consisting of 1×Dye (DiscoverX, Calcium No WashPLUS kit, Catalog No. 90-0091), 1×Additive A and 2.5 mM Probenecid in HBSS/20 mM Hepes. Probenecid was prepared fresh. Cells were loaded with dye prior to testing. Media was aspirated from cells and replaced with 25 μL Dye Loading Buffer. Test compounds were assayed at 10 concentrations with the highest concentration either 30 or 10 μM and subsequent concentrations using a 0.33 dilution factor. Cells with testing sample were incubated for 45 minutes at 37° C. and then 20 minutes at room temperature. After dye loading, cells were removed from the incubator and 25 μL of 2×compound in HBSS/20 mM Hepes was added using a FLIPR Tetra (MDS). […]
# Compound agonist activity was measured on a FLIPR Tetra. Calcium mobilization was monitored for 2 minutes with a 5 second baseline read. FLIPR read-Area under the curve was calculated for the two minute read. Compound activity was analyzed using CBIS data analysis suite (ChemInnovation, CA). Percentage activity was calculated as 100%×(mean RFU of test sample−mean RFU of vehicle control)/(mean MAX RFU control ligand −mean RFU of vehicle control). For antagonist mode assays, percentage inhibition was calculated as 100%×(1−(mean RFU of test sample−mean RFU of vehicle control)/(mean RFU of EC80 control−mean RFU of vehicle control)).
# 5-HT2B = 5-HT2B (Homo sapiens (Human), UniProt P41595); assay: 5-HT2B agonist and antagonist calcium assay (Calcium NWPLUS, FLIPR); assay type: cell-based
# 5-HT2B, sequence (P41595 whole entry, looked up, species assumed): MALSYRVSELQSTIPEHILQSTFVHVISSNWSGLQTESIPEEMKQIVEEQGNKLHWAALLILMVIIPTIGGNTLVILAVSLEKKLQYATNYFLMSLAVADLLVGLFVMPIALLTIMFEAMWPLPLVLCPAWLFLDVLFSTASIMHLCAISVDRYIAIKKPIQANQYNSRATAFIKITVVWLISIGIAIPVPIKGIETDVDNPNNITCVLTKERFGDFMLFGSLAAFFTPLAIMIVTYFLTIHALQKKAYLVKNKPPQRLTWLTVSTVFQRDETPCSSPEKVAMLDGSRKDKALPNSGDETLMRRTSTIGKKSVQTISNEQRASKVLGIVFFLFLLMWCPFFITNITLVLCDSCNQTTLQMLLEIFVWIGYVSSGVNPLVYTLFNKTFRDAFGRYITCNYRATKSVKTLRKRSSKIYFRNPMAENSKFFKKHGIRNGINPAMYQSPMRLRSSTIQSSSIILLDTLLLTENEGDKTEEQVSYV
# [6] = IC50 (appeared close to), lowest concentration too high for accurate estimate
# [7] = SERT IC50 (μM), 2 nM [3H]imipramine
# Nicotinic Acetylcholine Receptor α4β2 (nAchRa4/b2), sequence (P43681 29-627 limits assumed): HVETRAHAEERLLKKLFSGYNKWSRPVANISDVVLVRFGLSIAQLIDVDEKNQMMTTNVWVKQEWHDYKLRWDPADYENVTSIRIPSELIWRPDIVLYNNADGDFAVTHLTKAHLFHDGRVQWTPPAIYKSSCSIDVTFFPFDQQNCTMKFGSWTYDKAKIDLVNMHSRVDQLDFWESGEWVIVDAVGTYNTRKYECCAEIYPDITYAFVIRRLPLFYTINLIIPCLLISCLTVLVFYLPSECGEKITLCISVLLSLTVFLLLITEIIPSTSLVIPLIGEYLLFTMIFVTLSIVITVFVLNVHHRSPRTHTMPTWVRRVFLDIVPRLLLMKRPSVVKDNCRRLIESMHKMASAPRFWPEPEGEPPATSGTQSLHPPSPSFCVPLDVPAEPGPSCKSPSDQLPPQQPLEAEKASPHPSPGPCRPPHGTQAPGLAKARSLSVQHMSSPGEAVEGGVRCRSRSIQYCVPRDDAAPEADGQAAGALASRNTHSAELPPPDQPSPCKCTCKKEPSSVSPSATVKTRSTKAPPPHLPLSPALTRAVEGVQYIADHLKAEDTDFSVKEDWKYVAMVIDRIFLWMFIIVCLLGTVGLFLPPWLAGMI
# Nicotinic Acetylcholine Receptor α4β2 (nAchRa4/b2), sequence (P17787 26-502 limits assumed): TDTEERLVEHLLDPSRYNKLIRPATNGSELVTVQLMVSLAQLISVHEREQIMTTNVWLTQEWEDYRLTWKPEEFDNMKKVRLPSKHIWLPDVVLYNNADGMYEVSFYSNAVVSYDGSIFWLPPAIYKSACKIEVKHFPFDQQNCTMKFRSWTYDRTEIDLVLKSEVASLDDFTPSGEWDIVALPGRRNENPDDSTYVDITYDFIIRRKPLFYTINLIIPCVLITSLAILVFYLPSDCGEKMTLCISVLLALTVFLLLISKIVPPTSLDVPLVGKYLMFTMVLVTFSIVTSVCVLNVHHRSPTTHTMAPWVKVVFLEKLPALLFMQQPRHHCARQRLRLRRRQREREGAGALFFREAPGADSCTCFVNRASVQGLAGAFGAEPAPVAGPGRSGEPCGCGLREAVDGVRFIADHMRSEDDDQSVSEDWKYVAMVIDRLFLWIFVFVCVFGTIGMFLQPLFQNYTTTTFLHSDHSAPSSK
Structure (SMILES),EC50 [1],IC50 [2],IC50 [4],Solubility [5],IC50 (MAO-A),EC50 (DAT),EC50 (SERT),further results
"CC[C@H](Cc1ccc2occc2c1)NC (stereo in doubt) [Compound R-5-MBPB, 1-(benzofuran-5-yl)-N-methylbutan-2-amine]",49.5 ± 27.1 nM,6330 nM,212 ± 36.2 nM,,,,,"IC50 [3, 6]: ~0.949 µM"
CNC(C)Cc1ccc2occc2c1.O=C(O)/C=C\C(=O)O (stereo not drawn) [Pattern 10A],,,,>10000 µg/mL,,,,
"CN[C@@H](C)Cc1ccc2occc2c1 [Compound S-5-MAPB, (S)-1-(benzofuran-5-yl)-N-methylpropan-2-amine]",13 ± 1.2 nM,,60.4 ± 2.8 nM,,1290 nM,258 ± 99 nM,67 ± 15 nM,"Hill Coef. (5-HT1BR): 1.08; EC50 (5-HT1BR; 5-HT1BR EC50 (μM)): 0.161 µM; EC50 (5-HT1BR; 5HT1B Agonist (μM)): 0.16 µM; IC50 [3, 7]: 3.4 µM"
"CNC(C)Cc1ccc2occc2c1.Cl (stereo not drawn) [Pattern 1A, 5-MAPB hydrochloride]",,,,>10000 µg/mL,,,,
CN[C@@H](C)Cc1ccc2occc2c1 [75% S-5-MAPB],,,,,,632 ± 113 nM,80 ± 7 nM,
"CN[C@H](C)Cc1ccc2occc2c1 [Compound R-5-MAPB, (R)-1-(benzofuran-5-yl)-N-methylpropan-2-amine]",29.3 ± 3.7 nM,4240 nM,150 ± 8.6 nM,,3940 nM,1950 ± 401 nM,184 ± 3 nM,"EC50 (5-HT2A receptors): 2400 nM; IC50 (5-HT2A receptors): 5340 nM; Hill Coef. (5-HT1BR): 1.13; EC50 (5-HT1BR; 5-HT1BR EC50 (μM)): 0.981 µM; EC50 (5-HT1BR; 5HT1B Agonist (μM)): 0.98 µM; IC50 [3, 7]: 2.7 µM; IC50 (5-HT2B): 360 nM"
Br.CNC(C)Cc1ccc2occc2c1 (stereo not drawn) [Pattern 2B],,,,>10000 µg/mL,,,,
"CC[C@@H](Cc1ccc2occc2c1)NC (stereo in doubt) [Compound S-5-MBPB, 1-(benzofuran-5-yl)-N-methylbutan-2-amine]",31.2 ± 14.3 nM,9980 nM,124 ± 35.8 nM,,2660 nM,,,"IC50 [3, 6]: ~0.0949 µM"

# Source: US11767305B2, “Advantageous benzofuran compositions for mental disorders or enhancement” (Tactogen Inc, priority 2020, dated 2023)
